Data set [1] is described as follows: Permeability test in the optimized annular shaking dish (AS) BBB model. The settings on record: human. How it is done: (§1) The culture inserts (Costar®, Washington, DC, USA, 6.5 mm diameter) of polycarbonate (PC) and polyester (PET) membrane were procured from Corning Inc. (Corning, NY, USA). […] After washing twice with PBS, the cells were seeded at a density of 1 × 10^5 hCMEC/D3 cells/well in the apical chamber and 3 × 10^4 U87MG cells/well on the basolateral side of the insert. The cultivation method was modified from that described in the literature. Briefly, the insert was inverted, and U87MG cells were initially seeded. The insert was flipped 3–4 h after seeding the U87MG cells. Subsequently, hCMEC/D3 cells were seeded 1 day later.
(§2) To prevent nonspecific binding, all compounds were pre-incubated for 30 min prior to the permeability study. The samples were collected at 0 min from the donor and at 30, 60, and 90 min from the acceptor and immediately replaced with a new transport buffer. Incubation was carried out in a humidified 5% CO2 environment at 37 °C with shaking at 100 rpm.
(§3) After culturing the cells in culture inserts, as described in Section 2.3, they were transferred to the AS prepared on day 3, and cultivation was carried out with orbital shaking at 150 rpm until day 17 (Figure 1b). The cultivated AS BBB model was employed to investigate the effects of the AS size, as well as the influence of FBS and ITS.
(§4) Chromatographic separations were performed on Agilent Poroshell 120 EC-C18 (3.0 × 50 mm, 2.7 µm; Agilent Technologies, Inc., Santa Clara, CA, USA) and YMC triart C18 (2.0 × 50 mm, 3 µm; YMC Co., Ltd., Kyoto, Japan) columns using 5 mM ammonium formate in water (pH 4) and methanol.
(§5) The optimized AS BBB model was evaluated as follows.

Data set [2] deals with in vitro AS BBB model (hCMEC/D3 co-cultured with U87MG). The description is as above. The settings on record: optimized AS BBB model. The procedure: as §1, §2, §3, §4, §5
The conditions of data set [3]: monkey; unbound plasma-CSF partition coefficient; cited from earlier work.
The conditions of data set [4]: rat; unbound plasma-CSF partition coefficient; cited from earlier work.
The test system of data set [5] is hCMEC/D3 cell layer on transwell inserts. Put plainly: Lucifer yellow (LY) diffusion, cell layer integrity. The settings on record: AS BBB model (discussion).
The next data set relates to P-gp. The data set is described as follows: Efflux transporter inhibition assay, P-gp, AS BBB model. It is filed as in vitro ADME. As to conditions: human, optimized AS BBB model. How it is done: A modified method from a previously published paper was used for the inhibition assay. […] The bidirectional permeability of substrates was evaluated by measuring changes in Papp and the efflux ratio for both the inhibitor- and vehicle-treated groups. The concentration of dantrolene was determined using liquid chromatography with tandem mass spectrometry (LC-MS/MS).

For a further data set, the system named is P-glycoprotein (P-gp). Put plainly: Rhodamine 123 efflux (bidirectional permeability, P-gp activity). The settings on record: for efflux ratio: 10 μM; for efflux ratio at 90 min, 10 μM: human, not told.

Structures can show the parent of a compound that is named as a salt. Where two headings read alike, the source gives them in different places.

Protocol for P-glycoprotein (P-gp): Bidirectional permeability tests were performed at time points of 0, 30, 60, and 90 min with shaking at 100 rpm. Each sample was measured at 480 nm/530 nm (excitation/emission wavelengths) using the VICTOR® Nivo multimode plate reader. The apparent permeability coefficient (Papp) was determined using Equation (2):Papp (cm/s) = dQ/dt × 1/(A × C0)(2) where: • A is the surface area of the insert filter membrane (cm^2) • C0 is the initial concentration in the donor solution (μM) • dQ/dt is the amount of the drug transported within a given time period (pmol/s)

In data set [1], `NC(=O)N1c2ccccc2C=Cc2ccccc21` [Carbamazepine, carbamazepine] showed a Papp at 90 min, 20 μM of 29 ± 4.4 ×10⁻⁶ cm/s. Moreover, in data set [2], the “permeability (in words)” value is recorded as “high permeability”. For the same molecule, in data set [3], the “Kp,uu,CSF” value was 0.979 (monkey) ^3.

The molecule `Cc1ncc2n1-c1ccc(Cl)cc1C(c1ccccc1F)=NC2` [Midazolam] registered a Papp in data set [1] of 41.5 ± 2.8 ×10⁻⁶ cm/s. Moreover, the “Kp,uu,CSF” value in data set [4] was 1.35 (rat) ^2.

In data set [1], `CC(C)NCC(O)COc1cccc2ccccc12` (stereo not shown) [Propranolol, propranolol HCl] returned a Papp at 90 min, 20 μM of 24.6 ± 4.5 ×10⁻⁶ cm/s.

`CCN1CCCC1CNC(=O)c1cc(S(N)(=O)=O)ccc1OC` (stereo not shown) [Sulpiride, sulpiride] gave a Papp at 90 min, 20 μM in data set [1] of 10.2 ± 0.82 ×10⁻⁶ cm/s. Also, the “Kp,uu,CSF” value in data set [4] is recorded as 0.049 (rat) ^2.

Turning to lucifer yellow CH dipotassium salt [LY], in data set [5], the “transport of LY through the paracellular pathway” value is given as “less than 1%”.

`O=C1NC(=O)C(c2ccccc2)(c2ccccc2)N1` [Phenytoin, phenytoin sodium]: the Papp at 90 min, 20 μM in data set [1] stood at 21.8 ± 1.2 ×10⁻⁶ cm/s.

In the case of `COC(=O)c1ccccc1-c1c2ccc(=N)cc-2oc2cc(N)ccc12` [Rhodamine123, rhodamine 123], the Papp at 90 min, 20 μM in data set [1] was found to be 0.67 ± 0.14 ×10⁻⁶ cm/s. Moreover, in data set [2], the “permeability (in words)” value is recorded as “low”. Moreover, the efflux ratio at 10 μM turned out to be 1.6 ± 0.13 in the data set with P-gp (with cyclosporin A 10 μM, with P-gp inhibitor cyclosporin A 10 μM) and 4.2 ± 0.15 in the data set on P-gp (without inhibitor, 10 μM). Also, the efflux ratio result with P-glycoprotein (P-gp) (15 cm AS group) is listed as “exceeding two”; with P-glycoprotein (P-gp) (15 cm AS, 5% FBS + ITS), 4.04 ± 0.04. In addition, the efflux ratio at 90 min, 10 μM in the data set on P-glycoprotein (P-gp) (15 cm AS, 2% FBS + ITS) is 6.73 ± 0.94; in the data set with P-glycoprotein (P-gp) (15 cm AS, 5% FBS), 2.4 ± 0.05; in the data set with P-glycoprotein (P-gp) (15 cm AS, 5% FBS + ITS), 4 ± 0.04.

By Papp is commonly meant the rate of passage across a membrane or cell layer, normalised by area and donor concentration. A high value points to fast passage. The efflux ratio is the permeability from basolateral to apical divided by that in the opposite direction, in the common usage.

The values above are taken from paper PMC10820479, “An Improved In Vitro Blood-Brain Barrier Model for the Evaluation of Drug Permeability Using Transwell with Shear Stress” (Pharmaceutics, 2023).
